Results on 23 molecules are retold here after US7517874B2 (priority 2007, dated 2009).

Structures can show the parent of a compound that is named as a salt. Where two headings read alike, the source gives them in different places.

For one assay, the target named is T1, rat CB2 receptor (rCB2) (Rattus norvegicus, UniProt Q9QZN9).
T1 sequence (Q9QZN9 1-360): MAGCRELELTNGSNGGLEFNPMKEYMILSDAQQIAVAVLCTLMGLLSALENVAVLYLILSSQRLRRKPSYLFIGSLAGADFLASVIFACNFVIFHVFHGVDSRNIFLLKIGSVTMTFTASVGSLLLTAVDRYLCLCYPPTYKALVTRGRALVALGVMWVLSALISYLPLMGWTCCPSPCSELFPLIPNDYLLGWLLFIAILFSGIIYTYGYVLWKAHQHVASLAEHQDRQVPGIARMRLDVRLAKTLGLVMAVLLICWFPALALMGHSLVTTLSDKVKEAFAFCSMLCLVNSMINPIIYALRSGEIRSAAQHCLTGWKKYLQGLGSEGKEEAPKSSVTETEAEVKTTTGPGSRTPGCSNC
In words: cell-based. Format: cell-based. As to conditions: for +/− RCB2: agonist or inverse agonist at rCB2. The method in brief:
(§1)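 Readout: LANCE TR-FRET cAMP, back-calculated from a concurrent standard curve and scaled between forskolin-only and forskolin + 1 μM CP55,940 wells. EC50 and intrinsic activity came from four-parameter fits.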

The target in assay [1] is human CB1 receptor (hCB1) (Homo sapiens, UniProt P21554). In words: cell-based. Type of assay: cell-based. As to conditions: for +/− HCB1: agonist or inverse agonist at hCB1. Put shortly: as §1
The mark [2] stands for this setting: groups >100 nM-10 μM and >10 μM, cAMP, CHO-K1 hCB1, read-out: EC50 HCB1.

Sequence of human CB1 receptor (hCB1) (P21554 whole entry): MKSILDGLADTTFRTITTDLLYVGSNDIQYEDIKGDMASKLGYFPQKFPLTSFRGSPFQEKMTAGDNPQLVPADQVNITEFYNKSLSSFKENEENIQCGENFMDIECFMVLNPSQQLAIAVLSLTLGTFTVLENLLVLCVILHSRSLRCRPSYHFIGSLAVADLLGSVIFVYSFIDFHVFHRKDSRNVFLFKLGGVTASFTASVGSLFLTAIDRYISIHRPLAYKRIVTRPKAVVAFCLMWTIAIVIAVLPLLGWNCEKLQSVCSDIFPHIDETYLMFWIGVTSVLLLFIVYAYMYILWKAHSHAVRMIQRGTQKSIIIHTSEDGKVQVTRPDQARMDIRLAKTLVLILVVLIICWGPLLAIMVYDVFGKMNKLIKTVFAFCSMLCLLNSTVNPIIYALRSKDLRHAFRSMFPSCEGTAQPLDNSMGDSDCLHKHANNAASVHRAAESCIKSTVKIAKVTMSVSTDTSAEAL

`CNC(=O)[C@H](CC(C)(C)C)NC(=O)c1nc(-c2ccc(F)cc2F)n2c1CN(C)CCC2` [Compound 549, (S)-3-(2,4-difluorophenyl)-N-(4,4-dimethyl-1-(methylamino)-1-oxopentan-2-yl)-8-methyl-6,7,8,9-tetrahydro-5H-imidazo[1,5-a][1,4]diazepine-1-carboxamide]: the EC50 (on rat CB2 receptor (rCB2); in assay [1]) was over 10000 nM in each case.
With `CNC(=O)[C@@H](NC(=O)c1nc(-c2c(F)cccc2F)n2c1CN(C)CCC2)C(C)(C)C` [Compound 601, (S)-3-(2,6-difluorophenyl)-N-(3,3-dimethyl-1-(methylamino)-1-oxobutan-2-yl)-8-methyl-6,7,8,9-tetrahydro-5H-imidazo[1,5-a][1,4]diazepine-1-carboxamide], at rat CB2 receptor (rCB2), the “+/− RCB2” value was “+”. For the same molecule, the “+/− HCB1” value in assay [1] is “+”.
Regarding `Cc1ccc(-c2nc(C(=O)N[C@H](c3nc(C)no3)C(C)(C)C)c3n2CCCN(C(C)C)C3)c(F)c1` [Compound 523, (S)-N-(2,2-dimethyl-1-(3-methyl-1,2,4-oxadiazol-5-yl)propyl)-3-(2-fluoro-4-methylphenyl)-8-isopropyl-6,7,8,9-tetrahydro-5H-imidazo[1,5-a][1,4]diazepine-1-carboxamide], the “+/− RCB2” value at rat CB2 receptor (rCB2) is listed as “−”. The molecule also yielded an EC50 in assay [1] of over 10000 nM.
In the case of `CNC(=O)[C@@H](NC(=O)c1nc(-c2ccccc2)n2c1CN(Cc1ccccc1)CC2)C(C)(C)C` [Compound 61, (S)-7-benzyl-N-(3,3-dimethyl-1-(methylamino)-1-oxobutan-2-yl)-3-phenyl-5,6,7,8-tetrahydroimidazo[1,5-a]pyrazine-1-carboxamide], the 50% effective concentration (EC50) (at rat CB2 receptor (rCB2); in assay [1]) was over 10000 nM each time.
Consider `CNC(=O)[C@@H](NC(=O)c1nc(-c2ccccc2)n2c1CN(C1CC1)CC2)C(C)(C)C` [Compound 197, (S)-7-cyclopropyl-N-(3,3-dimethyl-1-(methylamino)-1-oxobutan-2-yl)-3-phenyl-5,6,7,8-tetrahydroimidazo[1,5-a]pyrazine-1-carboxamide], for which the “+/− RCB2” value at rat CB2 receptor (rCB2) is “−”. Besides, the EC50 in assay [1] is over 10000 nM.
As for `CNC(=O)[C@@H](NC(=O)c1nc(-c2ccccc2-c2ccccc2)n2c1CN(C)CCC2)C(C)(C)C` [Compound 413, (S)-3-(biphenyl-2-yl)-N-(3,3-dimethyl-1-(methylamino)-1-oxobutan-2-yl)-8-methyl-6,7,8,9-tetrahydro-5H-imidazo[1,5-a][1,4]diazepine-1-carboxamide], the EC50 (at rat CB2 receptor (rCB2); in assay [1]) was over 10000 nM each time.
In the case of `O=C(Nc1ccccc1)c1nc(-c2ccccc2)n2c1CN(CCO)CC2` [Compound 151, 7-(2-hydroxyethyl)-N,3-diphenyl-5,6,7,8-tetrahydroimidazo[1,5-a]pyrazine-1-carboxamide], the “+/− RCB2” value at rat CB2 receptor (rCB2) was “−”. Besides, in assay [1] (setting [2]), the EC50 is over 10000 nM.
Turning to `CNC(=O)[C@H](CC(C)C)NC(=O)c1nc(-c2ccc(F)cc2F)n2c1CN(C)CCC2` [Compound 534, (S)-3-(2,4-difluorophenyl)-8-methyl-N-(4-methyl-1-(methylamino)-1-oxopentan-2-yl)-6,7,8,9-tetrahydro-5H-imidazo[1,5-a][1,4]diazepine-1-carboxamide], at rat CB2 receptor (rCB2), the “+/− RCB2” value is reported as “+”. The molecule further gave an EC50 in assay [1] of over 10000 nM.
For `CCN1CCn2c(-c3ccccc3)nc(C(=O)NCC3CCOCC3)c2C1` [Compound 168, 7-ethyl-3-phenyl-N-((tetrahydro-2H-pyran-4-yl)methyl)-5,6,7,8-tetrahydroimidazo[1,5-a]pyrazine-1-carboxamide], in that order: “−” and over 10000 nM.
As to `CC(C)(C)[C@@H](CO)NC(=O)c1nc(-c2ccccc2)n2c1CNCC2` [Compound 22, (S)-N-(1-hydroxy-3,3-dimethylbutan-2-yl)-3-phenyl-5,6,7,8-tetrahydroimidazo[1,5-a]pyrazine-1-carboxamide], at rat CB2 receptor (rCB2), the “+/− RCB2” value is recorded as “−”. Moreover, the 50% effective concentration (EC50) in assay [1] is over 10000 nM.
Taken in the same sequence, the figures for `CC12CCC(C1)C(C)(C)C2NC(=O)c1nc(-c2ccccc2)n2c1CNCC2` (stereo not shown) [Compound 39, 3-Phenyl-N-(1,3,3-trimethylbicyclo[2.2.1]heptan-2-yl)-5,6,7,8-tetrahydro-imidazo[1,5-a]pyrazine-1-carboxamide HCl] were “+” and over 10000 nM.
For `CNC(=O)[C@@H](NC(=O)c1nc(-c2ccccc2)n2c1CN(CCO)CC2)C(C)(C)C` [Compound 153, (S)-N-(3,3-dimethyl-1-(methylamino)-1-oxobutan-2-yl)-7-(2-hydroxyethyl)-3-phenyl-5,6,7,8-tetrahydroimidazo[1,5-a]pyrazine-1-carboxamide], in that order: “−” and over 10000 nM.
Taken in the same sequence, the figures for `CNC(=O)[C@@H](NC(=O)c1nc(-c2ccccc2)n2c1CN(CC1CC1)CCC2)C(C)(C)C` [Compound 321, (S)-8-(cyclopropylmethyl)-N-(3,3-dimethyl-1-(methylamino)-1-oxobutan-2-yl)-3-phenyl-6,7,8,9-tetrahydro-5H-imidazo[1,5-a][1,4]diazepine-1-carboxamide] were “−” and over 10000 nM.
For the molecule `CCC(=O)N1CCn2c(-c3ccccc3)nc(C(=O)N[C@H](C(=O)NC)C(C)(C)C)c2C1` [Compound 189, (S)-N-(3,3-dimethyl-1-(methylamino)-1-oxobutan-2-yl)-3-phenyl-7-propionyl-5,6,7,8-tetrahydroimidazo[1,5-a]pyrazine-1-carboxamide], the “+/− RCB2” value on rat CB2 receptor (rCB2) is recorded as “+”. The molecule also showed an EC50 in assay [1] of over 10000 nM.
Taken in the same sequence, the figures for `CNC(=O)[C@@H](NC(=O)c1nc(-c2ccccc2)n2c1CN(Cc1ccco1)CC2)C(C)(C)C` [Compound 64, (S)-N-(3,3-dimethyl-1-(methylamino)-1-oxobutan-2-yl)-7-(furan-2-ylmethyl)-3-phenyl-5,6,7,8-tetrahydroimidazo[1,5-a]pyrazine-1-carboxamide] were “−” and over 10000 nM.
`CNC(=O)[C@@H](NC(=O)c1nc(-c2ccccc2)n2c1CN(Cc1cccnc1)CC2)C(C)(C)C` [Compound 63, (S)-N-(3,3-dimethyl-1-(methylamino)-1-oxobutan-2-yl)-3-phenyl-7-(pyridin-3-ylmethyl)-5,6,7,8-tetrahydroimidazo[1,5-a]pyrazine-1-carboxamide]: the EC50 (at rat CB2 receptor (rCB2); in assay [1]) was over 10000 nM throughout.
On to `CCN1CCn2c(-c3ccc(Cl)cc3)nc(C(=O)NCCC(C)C)c2C1` [Compound 158, 3-(4-chlorophenyl)-7-ethyl-N-isopentyl-5,6,7,8-tetrahydroimidazo[1,5-a]pyrazine-1-carboxamide], for which the “+/− RCB2” value at rat CB2 receptor (rCB2) is reported as “−”. The EC50 in assay [1] is over 10000 nM.
For `CNC(=O)[C@@H](NC(=O)c1nc(-c2ccccc2)n2c1CN(CC(C)(C)C)CC2)C(C)(C)C` [Compound 55, (S)-N-(3,3-dimethyl-1-(methylamino)-1-oxobutan-2-yl)-7-neopentyl-3-phenyl-5,6,7,8-tetrahydroimidazo[1,5-a]pyrazine-1-carboxamide], in that order: “−” and over 10000 nM.
Take `Cc1cnc(CNC(=O)c2nc(-c3ccccc3)n3c2CN(C)CC3)cn1` [Compound 237, 7-methyl-N-((5-methylpyrazin-2-yl)methyl)-3-phenyl-5,6,7,8-tetrahydroimidazo[1,5-a]pyrazine-1-carboxamide]: the concentration for a half-maximal effect (EC50) (at rat CB2 receptor (rCB2); in assay [1]) was over 10000 nM throughout.
On to `CNC(=O)[C@@H](NC(=O)c1nc(-c2ccc(-n3cccn3)cc2)n2c1CN(C)CCC2)C(C)(C)C` [Compound 390, (S)-3-(4-(1H-pyrazol-1-yl)phenyl)-N-(3,3-dimethyl-1-(methylamino)-1-oxobutan-2-yl)-8-methyl-6,7,8,9-tetrahydro-5H-imidazo[1,5-a][1,4]diazepine-1-carboxamide], for which the “+/− RCB2” value on rat CB2 receptor (rCB2) is “−”. Moreover, the EC50 in assay [1] is over 10000 nM.
For `CNC(=O)[C@@H](NC(=O)c1nc(-c2cccc(C#N)c2)n2c1CN(C)CCC2)C(C)(C)C` [Compound 328, (S)-3-(3-cyanophenyl)-N-(3,3-dimethyl-1-(methylamino)-1-oxobutan-2-yl)-8-methyl-6,7,8,9-tetrahydro-5H-imidazo[1,5-a][1,4]diazepine-1-carboxamide], in that order: “+” and over 10000 nM.
Take `CNC(=O)[C@@H](NC(=O)c1nc(-c2ccncc2F)n2c1CN(C)CCC2)C(C)(C)C` [Compound 451, (S)-N-(3,3-dimethyl-1-(methylamino)-1-oxobutan-2-yl)-3-(3-fluoropyridin-4-yl)-8-methyl-6,7,8,9-tetrahydro-5H-imidazo[1,5-a][1,4]diazepine-1-carboxamide]: the “+/− RCB2” value at rat CB2 receptor (rCB2) is on record as “+”. Moreover, in assay [1], the “+/− HCB1” value was “+”.
As for `CN1CCn2c(-c3ccc(Cl)cc3F)nc(C(=O)NC3CCN(S(C)(=O)=O)CC3)c2C1` [Compound 213, 3-(4-chloro-2-fluorophenyl)-7-methyl-N-(1-(methylsulfonyl)piperidin-4-yl)-5,6,7,8-tetrahydroimidazo[1,5-a]pyrazine-1-carboxamide], the EC50 on rat CB2 receptor (rCB2) (groups >100 nM-10 μM and >10 μM, cAMP, CHO-K1 rCB2, read-out: EC50 RCB2) was over 10000 nM; in assay [1] (setting [2]), over 10000 nM.

As a reminder, the EC50 is the concentration needed to bring the measured effect to its halfway point.
